Source: patent publication US20230167073A1 (Teijin Pharma Limited, priority 2020, published 2023)

The compounds below were run against T1, Human TRPC6 (Homo sapiens, UniProt Q9Y210) (assay: Evaluation of TRPC6 channel inhibitory activity (1), FLIPR Calcium 5 Assay Kit, OAG stimulation (Compound Nos. 1-1293)). Details: Human TRPC6 stably-expressing cells, OAG 30 μM, FLIPR Calcium 5 Assay Kit; read-out: Inhibitory activity (pIC50 class) (converted).
T1 construct: expressed in transfected cells
T1 sequence (Q9Y210 1-931): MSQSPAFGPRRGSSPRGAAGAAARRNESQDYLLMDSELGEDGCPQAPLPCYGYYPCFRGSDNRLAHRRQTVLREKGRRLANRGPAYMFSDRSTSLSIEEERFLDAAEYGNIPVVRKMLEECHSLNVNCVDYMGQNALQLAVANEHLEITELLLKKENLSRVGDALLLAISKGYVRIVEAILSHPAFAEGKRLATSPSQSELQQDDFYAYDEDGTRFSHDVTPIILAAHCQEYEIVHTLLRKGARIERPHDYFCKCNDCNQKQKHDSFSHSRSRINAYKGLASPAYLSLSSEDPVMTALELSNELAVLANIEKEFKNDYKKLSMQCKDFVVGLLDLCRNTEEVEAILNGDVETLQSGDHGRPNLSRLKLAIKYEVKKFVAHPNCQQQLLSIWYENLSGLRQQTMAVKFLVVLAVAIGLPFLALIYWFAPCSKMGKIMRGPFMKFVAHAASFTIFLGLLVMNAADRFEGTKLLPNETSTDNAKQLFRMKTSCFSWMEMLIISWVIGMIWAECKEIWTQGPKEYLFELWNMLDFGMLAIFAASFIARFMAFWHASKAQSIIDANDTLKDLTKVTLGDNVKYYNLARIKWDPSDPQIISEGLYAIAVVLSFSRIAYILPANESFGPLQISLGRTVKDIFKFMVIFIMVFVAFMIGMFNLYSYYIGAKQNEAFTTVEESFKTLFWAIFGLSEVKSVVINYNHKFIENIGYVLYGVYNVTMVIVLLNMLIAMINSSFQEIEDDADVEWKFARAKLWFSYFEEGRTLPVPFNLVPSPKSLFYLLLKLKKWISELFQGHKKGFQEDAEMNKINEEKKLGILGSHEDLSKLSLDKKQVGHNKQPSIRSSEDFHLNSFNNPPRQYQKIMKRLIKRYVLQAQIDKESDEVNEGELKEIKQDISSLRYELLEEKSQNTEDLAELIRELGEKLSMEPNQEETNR
Format: cell-based
Description: Evaluation of TRPC6 Channel Inhibitory Activity (1) (Compound Nos. 1-1293)
In order to investigate TRPC6 channel inhibitory activity of the compounds, evaluation was conducted using FLIPR® Calcium 5 Assay Kit (Molecular Devices) in accordance with the following procedure. Human TRPC6 stably-expressing cells were seeded in a 384-well black clear bottom plate at a density of 5×10^3/well and cultured in an incubator at 37° C. 5% CO2 for 24 hours. Thereafter, 25 μL of a Non Wash Dye Solution, prepared using Component A, 20 mM HEPES-HBSS and 250 mM probenecid, all of which are included in the kit, was added to each well, and the plate was incubated for 30 minutes. A volume of 12.5 μL of a compound solution was added into each well while the fluorescence was measured with FLIPR tetra. After 20 minutes, 12.5 μL of a 1-oleoyl-2-acetyl glycerol (OAG) solution was added at a final concentration of 30 μM. The difference between the minimum fluorescence intensity before the addition of the compound and the maximum fluorescence intensity after the addition of OAG was defined as a signal. An inhibition rate was calculated, assuming the average signal of wells without the compound as the inhibition rate of 0% and the average signal of wells without the compound and OAG as the inhibition rate of 100%. The calculated inhibition rate was analyzed by a four-parameter logistic regression to quantify the inhibition rate in the logarithm of the inverse of the effective concentration which gives a 50% inhibition rate (pIC50). The intensity was expressed by the following symbols (+, ++, +++).

SMILES | IC50
N#Cc1ccc(-c2ccc(CN)cc2)c(Nc2cc(-c3ccccc3)ncn2)c1 [Compound 1, 4-[4-(aminomethyl)phenyl]-3-[(6-phenylpyrimidin-4-yl)amino]benzonitrile] | 10 to 1000 nM
Cc1nc(Nc2cc(C#N)ccc2-c2ccc(CCN)cc2)cc(N2CCOCC2)n1 [Compound 2, 4-[4-(2-aminoethyl)phenyl]-3-[(2-methyl-6-morpholin-4-ylpyrimidin-4-yl)amino]benzonitrile] | < 10 nM
Cc1nc(Nc2cc(C#N)ccc2-c2ccc3c(c2)COC32CNC2)cc(N2CCOCC2)n1 [Compound 3, 3-[(2-methyl-6-morpholin-4-ylpyrimidin-4-yl)amino]-4-spiro[3H-2-benzofuran-1,3′-azetidin]-5-ylbenzonitrile] | 10 to 1000 nM
Cc1nc(Nc2cc(C#N)ccc2-c2ccc(C(=O)CN)cc2)cc(N2CCOCC2)n1 [Compound 4, 4-[4-(2-Aminoacetyl)phenyl]-3-[(2-methyl-6-morpholin-4-ylpyrimidin-4-yl)amino]benzonitrile] | > 1000 nM
Cc1nc(N2CCOCC2)cc(N(C)c2cc(C#N)ccc2-c2ccc3c(c2)COC32CN(C)C2)n1 [Compound 5, 3-[methyl-(2-methyl-6-morpholin-4-ylpyrimidin-4-yl)amino]-4-(1′-methylspiro[3H-2-benzofuran-1,3′-azetidin]-5-yl)benzonitrile] | > 1000 nM
CN(c1cc(C#N)ccc1-c1ncc(CCN)cn1)c1cc(-c2ccccc2)nn1C [Compound 6, 4-[5-(2-Aminoethyl)pyrimidin-2-yl]-3-[methyl-(2-methyl-5-phenylpyrazol-3-yl)amino]benzonitrile] | < 10 nM
Cc1nc(Oc2cc(C#N)ccc2-c2ccc(CCN)cc2)cc(N2CCOCC2)n1 [Compound 7, 4-[4-(2-Aminoethyl)phenyl]-3-(2-methyl-6-morpholin-4-ylpyrimidin-4-yl)oxybenzonitrile] | < 10 nM
Cc1nc(Oc2cc(C#N)ccc2-c2ccc(C(=O)CN)cc2)cc(N2CCOCC2)n1 [Compound 8, 4-[4-(2-aminoacetyl)phenyl]-3-(2-methyl-6-morpholin-4-ylpyrimidin-4-yl)oxybenzonitrile] | > 1000 nM
Cc1nc(Oc2cc(C#N)ccc2-c2ccc(C(O)CN)cc2)cc(N2CCOCC2)n1 (stereo not shown) [Compound 9, 4-[4-(2-amino-1-hydroxyethyl)phenyl]-3-(2-methyl-6-morpholin-4-ylpyrimidin-4-yl)oxybenzonitrile] | < 10 nM
Cc1nc(Oc2cc(C#N)ccc2-c2ccc(N3CCN(C)CC3)cc2)cc(N2CCOCC2)n1 [Compound 10, 3-(2-methyl-6-morpholin-4-ylpyrimidin-4-yl)oxy-4-[4-(4-methylpiperazin-1-yl)phenyl]benzonitrile] | > 1000 nM
COC(CN)c1ccc(-c2ccc(C#N)cc2Oc2cc(N3CCOCC3)nc(C)n2)cc1 (stereo not shown) [Compound 11, 4-[4-(2-Amino-1-methoxyethyl)phenyl]-3-(2-methyl-6-morpholin-4-ylpyrimidin-4-yl)oxybenzonitrile] | < 10 nM
Cc1nc(Oc2cc(C#N)ccc2-c2ccc(N3CCNCC3)cc2)cc(N2CCOCC2)n1 [Compound 12, 3-(2-methyl-6-morpholin-4-ylpyrimidin-4-yl)oxy-4-(4-piperazin-1-ylphenyl)benzonitrile] | > 1000 nM
Cc1nc(Oc2cc(C#N)ccc2-c2ccc(C(CN)Oc3ccccc3)cc2)cc(N2CCOCC2)n1 (stereo not shown) [Compound 13, 4-[4-(2-Amino-1-phenoxyethyl)phenyl]-3-(2-methyl-6-morpholin-4-ylpyrimidin-4-yl)oxybenzonitrile] | 10 to 1000 nM
Cc1nc(Oc2cc(C#N)ccc2-c2cnc(N)nc2)cc(N2CCOCC2)n1 [Compound 14, 4-(2-aminopyrimidin-5-yl)-3-(2-methyl-6-morpholin-4-ylpyrimidin-4-yl)oxybenzonitrile] | > 1000 nM

The next lines start with the values.

IC50 | SMILES
< 10 nM | Cn1nc(-c2cccc(F)c2)cc1Oc1cc(C#N)ccc1-c1ncc([C@H](O)CN)cn1 (stereo in doubt) [compound 404, 4-[5-(2-amino-1-hydroxyethyl)pyrimidin-2-yl]-3-[5-(3-fluorophenyl)-2-methylpyrazol-3 yl]oxybenzonitrile]
> 1000 nM | Cn1nc(C2CC2)cc1Oc1cc(C#N)ccc1-c1cccn2c([C@@H](N)CCO)nnc12 (stereo in doubt) [compound 533, 4-[3-(1-amino-3-hydroxypropyl)-[1,2,4]triazolo[4,3-a]pyridin-8-yl]-3-(5-cyclopropyl-2-methylpyrazol-3-yl)oxybenzonitrile]
> 1000 nM | Cn1nc(C2CC2)cc1Oc1cc(C#N)ccc1-c1cccn2c(C[C@H](N)C(=O)O)nnc12 (stereo in doubt) [compound 581, 2-amino-3-[8-[4-cyano-2-(5-cyclopropyl-2-methylpyrazol-3-yl)oxyphenyl]-[1,2,4]triazolo[4,3-a]pyridin-3-yl]propanoic acid]
10 to 1000 nM | CCN(CC)c1cc(Oc2cc(C#N)ccc2-c2ccc(CCN)cc2)nc(C)n1 [Compound 15, 4-[4-(2-aminoethyl)phenyl]-3-[6-(diethylamino)-2-methylpyrimidin-4-yl]oxybenzonitrile]
10 to 1000 nM | CCCN(CCC)c1cc(Oc2cc(C#N)ccc2-c2ccc(CCN)cc2)nc(C)n1 [Compound 16, 4-[4-(2-aminoethyl)phenyl]-3-[6-(dipropylamino)-2-methylpyrimidin-4-yl]oxybenzonitrile]
< 10 nM | Cc1nc(Oc2cc(C#N)ccc2-c2ccc(CCN)cc2)cc(N2CCCCC2)n1 [Compound 17, 4-[4-(2-Aminoethyl)phenyl]-3-(2-methyl-6-piperidin-1-ylpyrimidin-4-yl)oxybenzonitrile]
10 to 1000 nM | Cc1nc(Oc2cc(C#N)ccc2-c2ccc(CCN)cc2)cc(N2CCC(F)(F)CC2)n1 [Compound 18, 4-[4-(2-aminoethyl)phenyl]-3-[6-(4,4-difluoropiperidin-1-yl)-2-methylpyrimidin-4-yl]oxybenzonitrile]
10 to 1000 nM | Cc1nc(Oc2cc(C#N)ccc2-c2ccc(CCN)cc2)cc(N2CCCC(F)(F)C2)n1 [Compound 19, 4-[4-(2-aminoethyl)phenyl]-3-[6-(3,3-difluoropiperidin-1-yl)-2-methylpyrimidin-4-yl]oxybenzonitrile]
10 to 1000 nM | Cc1nc(Oc2cc(C#N)ccc2-c2ccc(CCN)cc2)cc(-c2ccnn2C)n1 [Compound 20, 4-[4-(2-aminoethyl)phenyl]-3-[2-methyl-6-(2-methylpyrazol-3-yl)pyrimidin-4-yl]oxybenzonitrile]
< 10 nM | Cc1nc(Oc2cc(C#N)ccc2-c2ccc(CCN)cc2)cc(-c2ccccc2C#N)n1 [Compound 21, 4-[4-(2-Aminoethyl)phenyl]-3-[6-(2-cyanophenyl)-2-methylpyrimidin-4-yl]oxybenzonitrile]
10 to 1000 nM | Cc1nc(Oc2cc(C#N)ccc2-c2ccc(CCN)cc2)cc(-c2ccccc2O)n1 [Compound 22, 4-[4-(2-aminoethyl)phenyl]-3-[6-(2-hydroxyphenyl)-2-methylpyrimidin-4-yl]oxybenzonitrile]
10 to 1000 nM | Cc1nc(Oc2cc(C#N)ccc2-c2ccc(CCN)cc2)cc(-c2ccccc2C(F)(F)F)n1 [Compound 23, 4-[4-(2-aminoethyl)phenyl]-3-[2-methyl-6-[2-(trifluoromethyl)phenyl]pyrimidin-4-yl]oxybenzonitrile]
10 to 1000 nM | Cc1nc(Oc2cc(C#N)ccc2-c2ccc(CCN)cc2)cc(N2CC(F)(F)C2)n1 [Compound 24, 4-[4-(2-aminoethyl)phenyl]-3-[6-(3,3-difluoroazetidin-1-yl)-2-methylpyrimidin-4-yl]oxybenzonitrile]
< 10 nM | Cc1nc(Oc2cc(C#N)ccc2-c2ccc(CCN)cc2)cc(N2CCCC2)n1 [Compound 25, 4-[4-(2-aminoethyl)phenyl]-3-(2-methyl-6-pyrrolidin-1-ylpyrimidin-4-yl)oxybenzonitrile]
